The record followed here is patent US9212204B2, “Treatment of rett syndrome using glycyl-L-2-methylprolyl-L-glutamic acid” (priority 2011, dated 2015).

Test [1] relates to MeCP2 deficient mice. As to the kind of experiment: Survival of MeCP2 deficient mice after oral administration. The format is in vivo, mouse. Conditions: 20 or 80 mg/kg daily. How it is done:
Therefore, we administer G-2-MePE orally to MeCP2 deficient mice as described in US 2009/0074865. Briefly, an aqueous solution, a water-in-oil emulsion (micro-emulsion, coarse emulsion or liquid crystal), or a gel composition containing a pharmaceutically effective amount of G-2-MePE (20 or 80 mg/kg per animal) is administered daily. In control MeCP2 deficient animals, we administer saline only, and wild-type animals are used to obtain baseline data similar to the design of studies described in Example 8 above.

Test [2] deals with RTT iPSC-derived neurons. As to the kind of experiment: In vitro human model of Rett Syndrome, iPSC-derived neurons. The format is cell-based. Details: glutamatergic synapse numbers: dose or concentration left out as unconfirmed. The source says: To test the effects of G-2-MePE on neuronal morphology, we used an in vitro model of RTT described in Marchetto et al., A model for neural development and treatment of Rett syndrome using human induced pluripotent stem cells, Cell 143:527-539 (2010) (including supplemental information). The model uses induced pluripotent stem cells (iPSCs) generated from fibroblasts of human RTT patients carrying different MeCP2 mutations.
RTT fibroblasts (carrying 4 distinct MeCP2 mutations) and control fibroblasts are generated from explants of dermal biopsies. The shRNA against target MeCP2 gene is cloned into the LentiLox3.7 lentivirus vector (as described in Marchetto et al.). The fibroblasts are infected with retroviral reprogramming vectors (Sox2, Oct4, c-Myc and Klf4), Two days after infection, fibroblasts are plated on mitotically inactivated mouse embryonic fibroblasts with hESC medium. After 2 weeks, iPSC colonies that emerge from the background of fibroblasts are manually picked and transferred to feeder-free conditions on matrigel-coated dishes (BD) using embryonic stem cell culture media mTeSR™ (Stem Cell Technologies) and passaged manually. Gene expression profiles of the generated clones are measured using human genome Affymetrix Gene Chip™ arrays to confirm that reprogramming is successful.
To obtain neural progenitor cells (NPCs), embryoid bodies (EBs) are formed by mechanical dissociation of cell clusters and plating onto low-adherence dishes in hESC medium without FGF2 for 5-7 days. After that, EBs are plated onto poly-ornithine/laminin-coated dishes in DMEM/F12 plus N2 medium (serum-free supplement for growth and expression of post-mitotic cells). […]
Cells are fixed in 4% paraformaldehyde and permeabilized with 0.5% Triton-X100 in PBS. […] Fluorescent signals are detected using a Zeiss inverted microscope and images are processed with Photoshop CS3. The following primary antibodies are used: TRA-1-60, TRA-1-81 (1:100), Nanog and Lin28 (1:500), human Nestin (1:100), Tuj-1 (1:500), Map2 (1:100); meCP2 (1:1000; VGLUT1 (1:200), Psd95 (1:500), GFP (1:200), Sox1 (1:250), Mushasil (1:200) and me3H3K27 (1:500). Cell soma size is measured using suitable software (e.g. ImageJ) after identification of neurons using the Syn::EGFP™. The morphologies of neuronal dendrites and spines are studied from an individual projection of z-stacks optical sections and scanned at 0.5 um increments that correlate with the resolution valued at z-plane. Each optical section is the result of 3 scans at 500 lps followed by Kalman filtering. For synapse quantification, images are taken by a z-step of 1 um using Biorad radiance 2100™ confocal microscope. Synapse quantification is done blinded to genotype. Only VGLUT1 puncta along Map2-positive processes are counted. […]

Non-standard residues stand in square brackets, D forms with d. Residues, ends and D or L forms follow the SMILES beside them. αMeP = C[C@@]1(C(=O)O)CCCN1

Regarding `C[C@@]1(C(=O)N[C@@H](CCC(=O)O)C(=O)O)CCCN1C(=O)CN` [Example G-2-MePE, Glycyl-L-2-methylprolyl-L-glutamic acid] (H-Gly-[αMeP]-Glu-OH), in test [1], the survival entry is on record as “increased substantially”. In test [2] (1 week treatment), the “frequency and amplitude of spontaneous post-synaptic currents” value was “normalizes”; the “frequency of calcium transients” value was “normalizes”. Also, in test [2] (all concentrations, 1 week), the VGLUT1 puncta number entry is reported as “increase”. Besides, in test [2] (for 1 week, vs non-treated RTT controls), the glutamatergic synapse numbers result was “significant increase”.
